This series in a line: Phase II single-dose oral pharmacokinetic study of urolithin A in a maltodextrin formulation. The class given is in vivo. The conditions noted are these: human, n = 12. As for the experimental part:
A phase II clinical study was carried out to determine the bioavailability of urolithin A when dosed in a formulation containing maltodextrin to human subjects.
In particular, the pharmacokinetic parameters of the compound were investigated in an open-label, parallel-arm, randomized, single-period, single-dose pharmacokinetic study. Subject enrolled where healthy volunteers, both males and females aged between 18 and 45 years. Formulation details and clinical study procedures are described in the method section below.
Subjects were administered orally as a single dose with a maltodextrin formulation (Table 2). The formulations was administered to deliver a total dose of 500 mg Urolithin A per dosing. Plasma samples were collected pre-dosing and at sequential time points after dosing, i.e. 1 hr, 4 hrs, 6 hrs, 8 hrs, 12 hrs, 24 hrs, 72 hrs. Plasma levels of parent Urolithin A were determined and expressed as pg/ml.
A total of 24 participants were enrolled in the study (12 subject per group). Subjects were healthy male and female participants. Subjects were selected after a screening to meet all the following criteria aged between 18 and 45 years; with Body Mass Index (BMI) between 18.50-30.00 kg/m2;
Maltodextrin formulation (urolithin A Powder with Maltodextrin): half a scoop (1.5 g) of powder, containing 500 mg of Urolithin A. Composition is described in Table 2.
Mode of Administration: Participants take the powder orally on an empty stomach in a sitting position, after an overnight fast. The powder was mixed with 240±2 mL of milk, shaken well, and consumed. It was ensured that all liquid was swallowed without leaving any residue behind or retaining in the mouth.
This study was an open-label, parallel-arm, single-period, single-dose, randomized study wherein each participant received a single dose of allocated investigational product administered orally to the trial participants in a sitting posture. The formulation was administered with about 240 mL of whole milk (3% fat content) in a sitting posture.
PK blood samples were collected at pre-dose and post-dose at 1 hr, 4 hrs, 6 hrs, 8 hrs, 12 hrs, 24 hrs, 72 hrs. PK blood samples were collected by direct vein puncture or using a venous cannula. When multiple blood sample collection were scheduled on the same day from the same participant, at the discretion of the investigator, a venous cannula was inserted and blood samples collected from the cannula to avoid multiple pricks. For the same, an intravenous (IV) cannula was placed in a forearm vein or dorsal aspect of the hand of the participants. Intravenous indwelling cannula kept in situ as long as required by injecting 0.3 mL of normal saline or heparinized saline (to prevent the cannula from clogging). Because the cannula contains stagnant blood and normal or heparinized saline, it was […] before collection of the pharmacokinetic blood sample, for the same, 0.3 mL (or as appropriate depending upon the size and length of the cannula) of normal saline/heparinized saline diluted blood was discarded prior to collection of the next PK sample. […] All PK blood samples was collected or transferred (in case if collected in a syringe) in K2-EDTA blood collection tubes.
After collection, the PK blood samples were centrifuged at 4000 RPM at 4° C.±2° C. for 10 minutes. The plasma was separated and transferred to labeled polypropylene tubes and stored in a freezer at −80° C.±10° C. Pharmacokinetics parameters of Urolithin A were calculated from the concentration Vs. time data using Phoenix@WinNonlin® professional software (Version 8.1.1 or higher) (Certara, Princeton, New Jersey, USA).

Results on one compound are retold here after patent US20250049750A1, “MALTODEXTRIN FORMULATIONS” (Amazentis SA, priority 2023, published 2025).

Regarding `O=c1oc2cc(O)ccc2c2ccc(O)cc12` [Urolithin A], the “Urolithin concentrations in blood, Mean” value (Pre-dose, plasma parent Urolithin A) came to 1.00 pg/mL. The concentration at 1 h (both sexes, 1 h after single oral 500 mg Urolithin A in maltodextrin formulation, plasma, read-out: Urolithin concentrations in blood, Mean) amounted to 0.551 ng/mL. For the same compound, for the setting “both sexes, 4 h after single oral 500 mg Urolithin A in maltodextrin formulation, plasma, read-out: Urolithin concentrations in blood, Mean”, the concentration at 4 h is 1.07 ng/mL. Moreover, the concentration at 6 h (both sexes, 6 h after single oral 500 mg Urolithin A in maltodextrin formulation, plasma, read-out: Urolithin concentrations in blood, Mean) came to 1.4 ng/mL. Further, the concentration at 8 h (both sexes, 8 h after single oral 500 mg Urolithin A in maltodextrin formulation, plasma, read-out: Urolithin concentrations in blood, Mean) was 0.775 ng/mL. For the same compound, the concentration at 12 h (both sexes, 12 h after single oral 500 mg Urolithin A in maltodextrin formulation, plasma, read-out: Urolithin concentrations in blood, Mean) was 0.72 ng/mL. Besides, the concentration at 24 h (both sexes, 24 h after single oral 500 mg Urolithin A in maltodextrin formulation, plasma, read-out: Urolithin concentrations in blood, Mean) worked out at 0.404 ng/mL. In addition, for the setting “both sexes, 72 h after single oral 500 mg Urolithin A in maltodextrin formulation, plasma, read-out: Urolithin concentrations in blood, Mean”, the concentration at 72 h worked out at 0.167 ng/mL.
